Measurements taken from patent US20030232986A1, “Inhibitors of caspases” (Vertex Pharmaceuticals Incorporated, priority 1998, published 2003).
Where a SMILES comes first, the peptide text is derived from it. The star is where a group is joined. Bz = O=C(c1ccccc1)*

Columns and labels:
[1] = system: Human Peripheral Blood Mononuclear Cells (PBMC), mature IL-1β; assay: PBMC cell assay: IL-1β assay with human peripheral blood mononuclear cells; format: cell-based; conditions: LPS-stimulated human PBMC, mature IL-1β in supernatant by ELISA
Summary of the method: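 Donor PBMC (suspension at 6×10^6 cells/ml) or adherent-enriched monocytes were stimulated with 5 ng/ml LPS (final) alongside 5–6 compound dilutions bracketing the ICE Ki, at 0.1% DMSO final, for 16–18 hr at 37° C, 5% CO2. Mature IL-1β in supernatants was measured by ELISA; IC50 was calculated relative to LPS-only controls.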

[2] = molecular target: Caspase-8 (Homo sapiens, UniProt Q14790); assay: Caspase-8 enzyme inhibition (Ki); format: biochemical; conditions: substrate Ac-DEVD-pNA 80 μM, 37° C.
Method: (§1) Ki values for test compounds with the various caspases were obtained by the method of Margolin et al. (J. Biol. Chem., 272 pp. 7223-7228 (1997)). Assays were performed in 10 mM Tris (Sigma Corp, St Louis Mo.) pH 7.5, 1 mM Dithiothreitol (DTT, Research Organic INC, Cleveland, Ohio) and 0.1% CHAPS (Pierce, Rockford Ill.) at 37° C. For caspase-3, a solution of 8% glycerol was added to the assay buffer to improve enzyme stability. A 65 μL aliquot of the assay buffer and 5 μL aliquot of the appropriate dilutions of inhibitor in DMSO where pipetted into a 96 well plate, treated with 10 μL of caspase, then diluted in assay buffer (0.5-40 nM active protein by active site titration). A control containing DMSO but no compound was included for each determination. The plates were then incubated for 15 minutes at 37° C., before addition of the appropriate substrate (20 μL, final concentration 1-4×KM, final assay volume 100 μL) to initiate the reaction. Reaction rates were measured at 37° C. either by following the time dependant increase in absorbance at 405 nm (for the pNA substrates) or in fluorescence (Ex 390, Em 460) (for the AMC substrates). The rates obtained were plotted against inhibitor concentration and the data fit to the Morrison tight-binding equation for competitive inhibitors (Morrison, J. F., Biochem. Biophys. Acta, 185 pp. 269-286 (1969)). The substrates used for the individual assays were as follows:
Caspase-8 Ac-DEVD-pNA (Bachem, King of Prussia, Pa.) (final concentration in assay 80 μM).

[3] = molecular target: T1, Caspase-3 (Homo sapiens, UniProt P42574); assay: Caspase-3 enzyme inhibition (Ki); format: biochemical; conditions: substrate Ac-DEVD-pNA 60 μM, 8% glycerol in buffer, 37° C.
T1 sequence (P42574 29-175 limits assumed): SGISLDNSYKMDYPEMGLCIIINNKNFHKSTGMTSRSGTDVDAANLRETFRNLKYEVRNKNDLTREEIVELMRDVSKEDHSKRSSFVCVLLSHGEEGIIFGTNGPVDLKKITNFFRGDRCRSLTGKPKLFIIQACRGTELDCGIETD
T1 sequence (P42574 176-277 limits assumed): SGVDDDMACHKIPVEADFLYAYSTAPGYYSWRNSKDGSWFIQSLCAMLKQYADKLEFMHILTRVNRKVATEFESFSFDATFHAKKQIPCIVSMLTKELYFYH
Method: as §1
Caspase-3 Ac-DEVD-pNA (Bachem, King of Prussia, Pa.) (final concentration in assay, 60 μM)

Caspase-8, sequence (Q14790 217-374 limits assumed): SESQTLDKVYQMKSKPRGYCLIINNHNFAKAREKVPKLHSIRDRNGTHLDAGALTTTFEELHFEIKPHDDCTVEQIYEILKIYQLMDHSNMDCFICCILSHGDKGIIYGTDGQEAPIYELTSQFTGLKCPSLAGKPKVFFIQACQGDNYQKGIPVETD
Caspase-8, sequence (Q14790 385-479 limits assumed): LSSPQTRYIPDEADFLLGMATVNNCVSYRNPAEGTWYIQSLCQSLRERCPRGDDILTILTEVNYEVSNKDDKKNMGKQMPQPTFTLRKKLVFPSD

Ki [2] | Ki [3] | Structure (SMILES) | IC50 [1]
– | – | CC(C)[C@H](NC(=O)c1nccc2ccccc12)C(=O)N1CCC[C@H]1C(=O)N[C@H](C=O)CC(=O)O [Example 5c] | 0.5 to 1 µM
– | – | CC(C)[C@H](NC(=O)c1cccc2c1-c1ccccc1C2=O)C(=O)N1CCC[C@H]1C(=O)N[C@H](C=O)CC(=O)O [Example 5k] | > 2 µM
– | – | CC(C)[C@H](NC(=O)c1cc(Cl)c(O)c(Cl)c1)C(=O)N1CCC[C@H]1C(=O)N[C@H](C=O)CC(=O)O [Example 5m] | < 0.5 µM
> 1 µM | > 1 µM | Cc1cc(C(=O)N[C@@H](C)C(=O)N2CCC[C@H]2C(=O)N[C@H](C=O)CC(=O)O)cc(C)c1O [Example 7c] | < 0.5 µM
0.01 to 1 µM | > 1 µM | C[C@H](NC(=O)c1nccc2ccccc12)C(=O)N1CCC[C@H]1C(=O)N[C@H](C=O)CC(=O)O [Example 7d] | < 0.5 µM
> 1 µM | > 1 µM | COc1ccc(C(=O)N[C@@H](C)C(=O)N2CCC[C@H]2C(=O)N[C@H](C=O)CC(=O)O)cc1 [Example 7f] | > 2 µM
– | – | COCC(=O)N1CCN(C(=O)[C@H](C)NC(=O)c2ccc(N)c(Cl)c2)[C@H](C(=O)N[C@H](C=O)CC(=O)O)C1 [Example 18f] | > 2 µM
– | – | O=C[C@H](CC(=O)O)NC(=O)[C@@H]1CCCN1C(=O)[C@H](Cc1cccnc1)NC(=O)c1nccc2ccccc12 [Example 20f] | 0.5 to 1 µM
– | – | CSC[C@H](NC(=O)c1nccc2ccccc12)C(=O)N1CCC[C@H]1C(=O)N[C@H](C=O)CC(=O)O [Example 20g] | < 0.5 µM
– | – | CS(=O)(=O)CC[C@H](NC(=O)c1nccc2ccccc12)C(=O)N1CCC[C@H]1C(=O)N[C@H](C=O)CC(=O)O [Example 20h] | < 0.5 µM
– | – | CC[C@H](NC(=O)c1cc(Cl)c(O)c(Cl)c1)C(=O)N1CCC[C@H]1C(=O)N[C@H](C=O)CC(=O)O [Example 20m] | 0.5 to 1 µM
– | > 1 µM | CC(C)[C@H](NC(=O)c1ccccc1)C(=O)N1CC(c2ccccc2)[C@H]1C(=O)N[C@H](C=O)CC(=O)O (stereo partly drawn) [Example 24a] | 0.5 to 1 µM
– | – | CC(C)[C@H](NC(=O)c1nccc2ccccc12)C(=O)N1CC(c2ccccc2)[C@H]1C(=O)N[C@H](C=O)CC(=O)O (stereo partly drawn) [Example 24c] | < 0.5 µM
– | – | CC(C)[C@H](NC(=O)c1nccc2ccccc12)C(=O)N1CC[C@H](C)[C@H]1C(=O)N[C@H](C=O)CC(=O)O [Example 26c] | 0.5 to 1 µM
– | – | CC(C)[C@H](NC(=O)c1nccc2ccccc12)C(=O)N1C2CCCCC2C[C@H]1C(=O)N[C@H](C=O)CC(=O)O (stereo partly drawn) [Example 26e] | < 0.5 µM
– | – | CC(C)[C@H](NC(=O)c1nccc2ccccc12)C(=O)N1[C@@H](c2ccccc2)CC[C@H]1C(=O)N[C@H](C=O)CC(=O)O [Example 26f] | < 0.5 µM
– | – | C[C@H](NC(=O)c1ccc(N)c(Cl)c1)C(=O)N1CC(F)(F)C[C@H]1C(=O)N[C@H](C=O)CC(=O)O [Example 27a] | < 0.5 µM
– | > 1 µM | CC(C)[C@H](NC(=O)c1ccccc1)C(=O)N[C@@H](C)C(=O)N[C@H](C=O)CC(=O)O [Example 29a] (Bz-Val-Ala-Asp-aldehyde) | < 0.5 µM
– | – | C[C@H](NC(=O)[C@@H](NC(=O)c1nccc2ccccc12)C(C)(C)C)C(=O)N[C@H](C=O)CC(=O)O [Example 29g] | 0.5 to 1 µM
– | 0.01 to 1 µM | COc1ccc(C(=O)NC(C(=O)N2N=C(C(C)(C)C)SC2C(=O)NC(C=O)CC(=O)O)C(C)C)cc1 (stereo not drawn) [Example 46b] | > 2 µM
– | – | COc1ccc(C(=O)NC(C(=O)N2CCCC2C(=O)NC(C=O)CC(=O)O)C(C)C)cc1 (stereo not drawn) [Example 57, 3-({1-[2-(4-Methoxy-benzoylamino)-3-methyl-butyryl]-pyrrolidine-2-carbonyl}-amino)-4-oxo-butyric acid] | 0.5 to 1 µM
– | – | Cc1cc(C(=O)N[C@H](C(=O)N2CCCC2C(=O)N[C@H](C=O)CC(=O)O)C(C)C)cc(C)c1O (stereo partly drawn) [Example 65, 3-({l-[2-(4-Hydroxy-3,5-dimethyl-benzoyiamino)-3-methyl-butyryl]-pyrrolidine-2-carbonyl}-amino)-4-oxo-butyric acid] | 0.5 to 1 µM
0.01 to 1 µM | > 1 µM | COc1ccc(C(=O)NC(C(=O)N2CCCC2C(=O)NC(C=O)CC(=O)O)C(C)(C)C)cc1 (stereo not drawn) [Example 69, 3-({1-[2-(4-Methoxy-benzoylamino)-3,3-dimethyl-butyryl]-pyrrolidine-2-carbonyl}-amino)-4-oxo-butyric acid] | < 0.5 µM
– | – | C[C@H](NC(=O)c1cccc2c1-c1ccccc1C2=O)C(=O)N1CCC[C@H]1C(=O)N[C@H](C=O)CC(=O)O [Example 122a] | > 2 µM
0.01 to 1 µM | > 1 µM | C[C@H](NC(=O)c1ccc(N)c(Cl)c1)C(=O)N1CCC[C@H]1C(=O)N[C@H](C=O)CC(=O)O [Example 122b, 3-({-[2-(4-Amino-3-chloro-benzoylamino)-propionyl]-pyrrolidine-2-carbonyl}-amino)-4-oxo-butyric acid] | 0.5 to 1 µM
– | – | COc1c(Cl)cc(C(=O)N[C@@H](C)C(=O)N2CCC[C@H]2C(=O)N[C@H](C=O)CC(=O)O)cc1Cl [Example 122c, 3-({1-[2-(3,5-Dichloro-4-methoxy-benzoylamino)-propionyl]-pyrrolidine-2-carbonyl}-amino)-4-oxo-butyric acid] | > 2 µM
> 1 µM | > 1 µM | COc1c(C)cc(C(=O)N[C@@H](C)C(=O)N2CCC[C@H]2C(=O)N[C@H](C=O)CC(=O)O)cc1C [Example 122d, 3-({1-[2-(4-Methoxy-3,5-dimethyl-benzoylamino)-propionyl]-pyrrolidine-2-carbonyl}-amino)-4-oxo-butyric acid] | 0.5 to 1 µM
0.01 to 1 µM | > 1 µM | CC(=O)Nc1ccc(C(=O)N[C@@H](C)C(=O)N2CCC[C@H]2C(=O)N[C@H](C=O)CC(=O)O)cc1Cl [Example 122f, 3-({1-[2-(4-Acetylamino-3-chloro-benzoylamino)-propionyl]-pyrrolidine-2-carbonyl}-amino)-4-oxo-butyric acid] | 0.5 to 1 µM
0.01 to 1 µM | > 1 µM | C[C@H](NC(=O)c1cc(Cl)c(O)c(Cl)c1)C(=O)N1CCC[C@H]1C(=O)N[C@H](C=O)CC(=O)O [Example 122k, 3-({1-[2-(3,5-Dichloro-4-hydroxy-benzoylamino)-propionyl]-pyrrolidine-2-carbonyl}-amino)-4-oxo-butyric acid] | < 0.5 µM
